Laboratory results from patent US8603437B2, “Methods for tumor diagnosis and therapy” (President and Fellows of Harvard College, priority 2000, dated 2013).

Key:
[1] = mouse, in vivo, iv
[2] = tested on: alkaline phosphatase (ALP)
Description: The animals were killed 1 hour later and the radioactivity in the forelimbs was measured.

[3] = Blood clearance after i.v. injection in mice; conditions: bled over 1 hour, blood radioactivity
[4] = Retention of radioactivity in forelimb after s.c. injection, and 24 hour biodistribution; format: in vivo, mice
Description: […] […] The animals were killed after 1 hour, 24 hours, and 48 hours, the radioactivity associated with the forelimbs was measured, and the percentage of radioactivity remaining was calculated (at the 24 hour time point, the biodistribution of radioactivity in various tissues and organs was also determined).

[5] = Biodistribution in normal mice after i.v. injection; format: in vivo; conditions: for affinity / avidity for normal tissues: 1 hour and 24 hours; for injected dose remaining in the body by 24 hours: ~5 μCi/100 μl
Description: Mice (n=30) were injected i.v. with the radiopharmaceutical (˜5 μCi/100 μl), the animals were killed at 1 hour (n=15) and 24 hours (n=15), and the radioactivity associated with blood, tissues, and organs was determined.
The biodistribution of ^125I-labeled Compound B was also examined in various tissues in normal mice. […] However, by 24 hours (FIG. 5), all tissues and organs (with the exception of minimal activity in the thyroid) were virtually void of radioactivity (<4% of the injected dose remained in the body by 24 hours).

[6] = tested on: alkaline phosphatase (ALP); conditions: ~10 μCi/100 μl 0.1 M Tris pH 7.2, 5 units ALP; only with active enzyme, not heat-inactivated ALP
[7] = Chemical nature of radioactivity in blood (stability), TLC and autoradiography of blood samples; format: in vivo, mice; conditions: blood samples from first 40 min, ethanol supernatant, TLC; single spot with same Rf as 127I-labeled Compound A
From the text: The plates were run in acetonitrile-water (1.5:2) and autoradiographed.

[8] = Solubility observations; format: physicochemical

| SMILES | blood clearance of radioactivity [1] | radioactive content within forelimbs pre-injected with ALP ([2]; ALP 50-400 units/10 μl s.c., 20 μCi i.v. five minutes later, killed 1 hour later) | uptake in forelimbs pre-injected with heat-inactivated ALP ([2]; heat-inactivated ALP s.c., i.v. prodrug, 1 hour) | T1/2β [3] [min] | fraction seeped out of the s.c. pocket by 24 hours ([4]; s.c. left forelimb, 5 μCi/5 μl saline followed by 5 μl DMSO) | dehalogenation (thyroid activity) [5] | affinity / avidity for normal tissues [5] | injected dose remaining in the body by 24 hours [5] | conversion to 125I-labeled Compound B [6] | stability in blood: chemical nature of radioactivity [7] | solubility in DMSO ([8]; 100 μl DMSO) | behaviour on adding water to the DMSO solution ([8]; 100 μl water added to 100 μl DMSO) | localization of escaped radioactivity in normal tissues ([4]; biodistribution 24 hours after s.c. injection) | change in forelimb radioactivity between 24 hours and 48 hours ([4]; s.c. forelimb) | injected activity remaining at the injection site at 24 hours ([4]; s.c. right forelimb, 5 μl DMSO solution followed by 5 μl saline) [%] | radioactivity in all tissues examined at 1 hour ([5]; 1 hour) [% ID/g] |
| --- | --- | --- | --- | --- | --- | --- | --- | --- | --- | --- | --- | --- | --- | --- | --- | --- |
| N.O=c1[nH]c(-c2ccccc2OP(=O)(O)O)nc2ccc(I)cc12 [^125-I labeled Compound A, Ammonium 2-(2′-Phosphoryloxyphenyl)-6-iodo-4-(3H)-quinazolinone] | rapid biphasic blood clearance | increased with enzyme dose and plateaued at the highest concentrations | no increase in uptake | 51.1 ± 6.8 | greater than 98% | minimal dehalogenation | low affinity to normal tissues | < 20 % of the injected dose | complete conversion | no evidence of free iodine |  |  |  |  |  |  |
| O=c1[nH]c(-c2ccccc2O)nc2ccc(I)cc12 [^125-I labeled Compound B, 2-(2′-Hydroxyphenyl)-6-iodo-4-(3H)-quinazolinone] |  |  |  |  |  |  | no avidity for any tissue | < 4 % of the injected dose |  |  | completely soluble | visible precipitate forms immediately | does not localize in any normal tissues | no change | 71±5 | < 15 |
